This is an account of results in US9079910B2, “5-(1,2,3-triazol-4-yl)-7H-pyrrolo[2,3-D]pyrimidine derivatives” (Merck Patent GmbH, priority 2011, dated 2015).

In one assay the target is T1, PDK1 (Homo sapiens, UniProt O15530).
T1 construct: His6 (N)
T1 sequence (O15530 51-556 limits assumed): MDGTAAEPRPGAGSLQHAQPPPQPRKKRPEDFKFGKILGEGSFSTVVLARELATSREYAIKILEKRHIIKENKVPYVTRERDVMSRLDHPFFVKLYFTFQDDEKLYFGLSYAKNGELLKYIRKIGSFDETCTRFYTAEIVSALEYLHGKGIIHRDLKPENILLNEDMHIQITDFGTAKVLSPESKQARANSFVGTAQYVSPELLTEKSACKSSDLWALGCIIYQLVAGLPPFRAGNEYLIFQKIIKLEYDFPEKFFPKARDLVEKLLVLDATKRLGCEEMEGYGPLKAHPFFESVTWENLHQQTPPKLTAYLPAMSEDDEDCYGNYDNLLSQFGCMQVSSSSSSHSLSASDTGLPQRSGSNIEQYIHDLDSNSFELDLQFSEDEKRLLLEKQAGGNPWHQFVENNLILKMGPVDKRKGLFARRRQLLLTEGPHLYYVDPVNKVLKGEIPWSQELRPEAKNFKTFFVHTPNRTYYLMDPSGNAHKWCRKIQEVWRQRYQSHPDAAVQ
Put plainly: Test for the inhibition of PDK1 (flashplate, 33P-ATP). Particulars: His6-PDK1, 4 μM ATP, 30° C., 60 min. In kind it is biochemical. How it is done: 4.0 Test for the Inhibition of PDK1
The experimental batches are carried out in a flashplate system with 384 wells/microtitration plate.
In each case, the PDK1 sample His6-PDK1(1-50)(3.4 nM), the PDK1 substrate biotin-bA-bA-[…] (400 nM), 4 μM ATP (with 0.2 μCi of ^33P-ATP/well) and the test substance in 50 μl of conventional experimental solution per well are incubated at 30° C. for 60 min. The test substances are employed in corresponding concentrations (if desired in a dilution series). The control is carried out without test substance. The reaction is stopped using standard methods and washed. The activity of the kinase is measured via the incorporated radioactivity in top count. In order to determine the non-specific kinase reaction (blank value), the experimental batches are carried out in the presence of 100 nM staurosporine.
The radioactivity (decompositions per minute) of the blank value (no use of test substance in the presence of staurosporine) is subtracted from all other radioactivity values. The controls (kinase activity without test substance) are set equal to 100 percent and all other radioactivity values (after subtracting the blank value) are expressed set in relation thereto (for example in % of the control).
IC50 values (50% inhibition) are determined with the aid of statistics programmes, such as, for example, RS1.

The target in a further assay is T2, IKKepsilon (Homo sapiens, UniProt Q14164).
T2 sequence (Q14164 1-716): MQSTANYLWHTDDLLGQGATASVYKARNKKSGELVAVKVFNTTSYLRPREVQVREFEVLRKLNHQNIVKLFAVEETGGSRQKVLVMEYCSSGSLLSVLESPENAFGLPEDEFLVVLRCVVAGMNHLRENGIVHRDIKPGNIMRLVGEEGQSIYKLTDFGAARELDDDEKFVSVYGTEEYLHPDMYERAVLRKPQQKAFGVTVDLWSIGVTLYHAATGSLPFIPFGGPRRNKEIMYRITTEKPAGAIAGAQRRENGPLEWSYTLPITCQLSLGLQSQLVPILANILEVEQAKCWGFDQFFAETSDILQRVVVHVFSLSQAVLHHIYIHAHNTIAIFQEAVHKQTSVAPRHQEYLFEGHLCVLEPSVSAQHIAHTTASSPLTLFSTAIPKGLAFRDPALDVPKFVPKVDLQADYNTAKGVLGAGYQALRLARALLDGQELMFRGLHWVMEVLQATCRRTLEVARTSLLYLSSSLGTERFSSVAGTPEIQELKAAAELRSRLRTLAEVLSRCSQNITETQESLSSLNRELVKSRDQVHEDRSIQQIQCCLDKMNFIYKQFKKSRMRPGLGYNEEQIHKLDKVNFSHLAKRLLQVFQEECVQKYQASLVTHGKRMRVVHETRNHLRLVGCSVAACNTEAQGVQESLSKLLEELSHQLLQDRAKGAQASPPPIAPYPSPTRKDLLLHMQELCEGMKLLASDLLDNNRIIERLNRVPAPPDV
Put plainly: IKK kinase test (IKKepsilon) (384-well flashplate assay). It is filed as biochemical. Particulars: 1 nM IKK, 10 μM ATP, 30° C., 120 min. The protocol: IKK—Kinase Test (IKKepsilon)
The kinase assay is performed as 384-well flashplate assay.
1 nM IKK, 800 nM biotinylated I B (19-42) peptide (biotin-C6-C6-[…]) and 10 μM ATP (with 0.3 μCi of ^33P-ATP/well) are incubated in a total volume of 50 μl (10 mM MOPS, 10 mM magnesium acetate, 0.1 mM EGTA, 1 mM dithiothreitol, 0.02% of Brij35, 0.1% of BSA, 0.1% of BioStab, pH 7.5) with or without test substance at 30° C. for 120 min. The reaction is stopped using 25 μl of 200 mM EDTA solution, filtered off with suction after 30 min at room temperature, and the wells are washed 3 times with 100 μl of 0.9% NaCl solution. The non-specific proportion of the kinase reaction (blank) is determined using 3 μM BX-795. Radioactivity is measured in the Topcount. IC50 values are calculated using RS1.

Assay [1] has as its target T3, TANK binding kinase (TBK1) (Homo sapiens, UniProt Q9UHD2).
T3 sequence (Q9UHD2 1-729): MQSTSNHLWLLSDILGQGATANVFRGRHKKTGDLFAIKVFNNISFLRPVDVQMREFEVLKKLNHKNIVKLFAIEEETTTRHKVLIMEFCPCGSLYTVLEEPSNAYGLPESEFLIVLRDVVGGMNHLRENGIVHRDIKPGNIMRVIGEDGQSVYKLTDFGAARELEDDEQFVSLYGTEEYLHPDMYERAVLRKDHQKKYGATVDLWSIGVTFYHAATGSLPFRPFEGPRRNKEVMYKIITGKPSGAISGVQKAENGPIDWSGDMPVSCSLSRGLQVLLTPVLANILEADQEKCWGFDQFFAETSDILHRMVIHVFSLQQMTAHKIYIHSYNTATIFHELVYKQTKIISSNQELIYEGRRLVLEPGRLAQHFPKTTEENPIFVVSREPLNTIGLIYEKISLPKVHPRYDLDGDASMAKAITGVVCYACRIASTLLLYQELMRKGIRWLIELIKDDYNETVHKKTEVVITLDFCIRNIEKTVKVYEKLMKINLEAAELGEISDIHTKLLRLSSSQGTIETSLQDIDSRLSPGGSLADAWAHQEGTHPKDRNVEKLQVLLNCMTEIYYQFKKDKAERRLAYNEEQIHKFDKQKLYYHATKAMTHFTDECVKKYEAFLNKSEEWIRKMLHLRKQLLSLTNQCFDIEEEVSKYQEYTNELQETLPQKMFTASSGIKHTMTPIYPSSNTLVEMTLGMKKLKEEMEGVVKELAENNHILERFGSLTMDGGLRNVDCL
Put plainly: TBK1 kinase test (384-well flashplate assay). In kind it is biochemical. The following applies: 0.6 nM TBK1, 10 μM ATP, 30° C., 120 min. The protocol:
The kinase assay is performed as 384-well flashplate assay. 0.6 nM TANK binding kinase (TBK1), 800 nM biotinylated MELK-derived peptide (biotin-Ah-Ah-[…]) and 10 μM ATP (with 0.25 μCi of ^33P-ATP/well) are incubated in a total volume of 50 μl (10 mM MOPS, 10 mM magnesium acetate, 0.1 mM EGTA, 1 mM DTT, 0.02% of Brij35, 0.1% of BSA, pH 7.5) with or without test substance at 30° C. for 120 min. The reaction is stopped using 25 μl of 200 mM EDTA solution, filtered off with suction after 30 min at room temperature, and the wells are washed 3 times with 100 μl of 0.9% NaCl solution. The non-specific proportion of the kinase reaction (blank) is determined using 100 nM staurosporine. Radioactivity is measured in the Topcount. IC50 values are calculated using RS1.

A further assay has as its system HCT 116. Nature of the assay: Vitality assay (tumour cell proliferation/vitality, Alamar Blue), HCT 116. In kind it is cell-based. Particulars: Homo sapiens, 96 h, HCT 116 cells, 4 days. How it is done:
(§1) In the present experiment description, the inhibition of tumour cell proliferation/tumour cell vitality by active compounds is described.
(§2) The cells are sown in a suitable cell density in microtitre plates (96-well format) and the test substances are added in the form of a concentration series. After four further days of cultivation in serum-containing medium, the tumour cell proliferation/tumour cell vitality can be determined by means of an Alamar Blue test system.
(§3) The cells are cultivated in medium. At intervals of several days, the cells are detached from the culture dishes with the aid of trypsin solution and sown in suitable dilution in fresh medium. The cells are cultivated at 37° Celsius and 10% CO2. […]
(§4) In each case, 20 μl of Alamar Blue reagent are added per well, and the microtitre plates are incubated, for example, for a further seven hours in a CO2 incubator (at 37° C. and 10% CO2). The plates are measured in a reader with a fluorescence filter at a wavelength of 540 nm. […]
(§5) The absorbance value of the medium control (no cells and test substances used) is subtracted from all other absorbance values. The controls (cells without test substance) are set equal to 100 percent, and all other absorbance values are set in relation thereto (for example in % of control):
(§6) IC50 values (50% inhibition) are determined with the aid of statistics programs, such as, for example, RS1.
(The colour change of resazurin is a common sign of viable cells or microbes.)

Another assay has as its system A2780. Put plainly: Vitality assay (tumour cell proliferation/vitality, Alamar Blue), A2780. In kind it is cell-based. The following applies: Homo sapiens, 96 h, A2780 cells, 4 days. How it is done: as §1, §2, §3, §4, §5, §6

Consider `c1ccc(Cn2cc(-c3c[nH]c4ncncc34)nn2)cc1` [Compound A6, 5-(1-benzyl-1H-1,2,3-triazol-4-yl)-7H-pyrrolo[2,3-d]pyrimidine], for which the IC50 (against PDK1; against IKKepsilon; in assay [1]) was 1000 to 10000 nM in each case.
Turning to `Fc1cccc(C(CCN2CCCCC2)n2cc(-c3c[nH]c4ncncc34)nn2)c1F` (centres unmarked) [Compound A9, 5-{1-[1-(2,3-difluorophenyl)-3-piperidin-1-ylpropyl]-1H-1,2,3-triazol-4-yl}-7H-pyrrolo[2,3-d]pyrimidine], the IC50 against PDK1 is 1000 to 10000 nM; on IKKepsilon, 1000 to 10000 nM; in assay [1], greater than 10000 nM.
Turning to `COCCOc1ncnc2[nH]cc(-c3cn(Cc4ccccc4)nn3)c12` [Compound A1, 5-(1-benzyl-1H-1,2,3-triazol-4-yl)-4-(2-methoxyethoxy)-7H-pyrrolo[2,3-d]pyrimidine], the IC50 is 1 to 10 µM with HCT 116; 10 to 1000 nM at PDK1; 1 to 10 µM with A2780; 1000 to 10000 nM on IKKepsilon; 10 to 1000 nM in assay [1].
On to `COc1ncnc2[nH]cc(-c3cn(Cc4ccccc4)nn3)c12` [Compound A2], for which the IC50 (against PDK1; against IKKepsilon; in assay [1]) was 10 to 1000 nM throughout.

As usually defined, the IC50 is the concentration needed to halve the response being measured. Read a low IC50 as inhibition by little substance.
